Each structure is given as a SMILES string. Converted amounts (≈) assume the structure as drawn.

Data on one compound can be found in ChEMBL document CHEMBL1649453, “Activity of temocillin against KPC-producing Klebsiella pneumoniae and Escherichia coli” (Antimicrob Agents Chemother, 2009).

The subject of one series is Klebsiella pneumoniae. Kind of series: Antimicrobial activity against Klebsiella pneumoniae expressing beta-lactamase KPC gene by agar dilution method. The format is functional.
Series [1] concerns Escherichia coli. Kind of series: Antimicrobial activity against Escherichia coli clinical isolates expressing beta-lactamase KPC gene by agar dilution method. The class given is functional. (Agar dilution tests growth on a series of plates holding different concentrations.)
In series [2] the test system is Escherichia coli. Description: Antimicrobial activity against Escherichia coli DH10B harboring pBCSK plasmid expressing beta-lactamase KPC gene by agar dilution method. The class given is functional. The following applies: K-12 DH10B.
Series [3] concerns Escherichia coli. Kind of series: Antimicrobial activity against Escherichia coli DH10B by agar dilution method. The format is functional. Particulars: K-12 DH10B.
Series [4] is described as follows: Cmax in human serum at 1 gram, iv. The format is ADME, organism-based. On the set-up: route intravenous.
Series [5] in a line: Protein binding in human serum at 1 gram, iv. The class given is ADME, organism-based. Particulars: read-out: PB (converted).
Series [6] in a line: Half life in human serum at 1 gram, iv. The format is ADME, organism-based.
Series [7] in a line: Drug level in human urine at 500 mg, im bid for 3 days. The format is ADME, organism-based. Particulars: read-out: Drug uptake.

Broadly, the MIC50 is an inhibitory concentration at the 50% level, which refers to growth in some studies and to a panel of isolates in others. A higher MIC50 goes with lower susceptibility. One may read the MIC90 as the lowest concentration that inhibits either 90% of growth or 90% of the strains tested, depending on the study. For orientation: MIC means the lowest concentration that inhibits growth of the organism. A lower MIC goes with inhibition by little substance. Broadly, the Cmax is the peak of the concentration-time curve. The half-life is the time in which the quantity being followed falls by half. Low readings indicate fast loss, high ones slow loss. Take `CO[C@@]1(NC(=O)C(C(=O)O)c2ccsc2)C(=O)N2[C@@H](C(=O)O)C(C)(C)S[C@@H]21` (some centres undefined) [TEMOCILLIN]: the MIC50 against Klebsiella pneumoniae stood at 32 µg/mL (≈ 77.2 µM). In the series on Klebsiella pneumoniae, the MIC90 was found to be 32 µg/mL (≈ 77.2 µM). Besides, the MIC against Escherichia coli [1], against Escherichia coli [2] and with Escherichia coli [3] was 8 µg/mL (≈ 19.3 µM) throughout. For the same compound, the highest level in series [4] (Cmax) was 160 µg/mL. In addition, in series [5], the fraction unbound was 0.15. In addition, the half-life in series [6] is 4 h. Further, the concentration at 72 h in series [7] was 500 µg/mL.
